{"source": "patent US20240016784A1", "about": "“Y BOX BINDING PROTEIN 1 INHIBITORS” (Oregon Health & Science University, priority 2020, published 2024)", "assay_in_all_cases": "NCI-60 cell line panel", "assay_type_in_all_cases": "cell-based", "key": {"786-0": {"test_system": "786-0", "conditions": "Homo sapiens, 48 hours", "excerpt": "(§1) FIG. 17: Assay of SU056 in NCI-60 cell line panel."}, "A498": {"test_system": "A498", "conditions": "Homo sapiens, 48 hours", "excerpt": "as §1"}, "A549/ATCC": {"test_system": "A549/ATCC", "conditions": "Homo sapiens, 48 hours", "excerpt": "as §1"}, "ACHN": {"test_system": "ACHN", "conditions": "Homo sapiens, 48 hours", "excerpt": "as §1"}, "BT-549": {"test_system": "BT-549", "conditions": "Homo sapiens, 48 hours", "excerpt": "as §1"}, "CAKI-1": {"test_system": "CAKI-1", "conditions": "Homo sapiens, 48 hours", "excerpt": "as §1"}, "CCRF-CEM": {"test_system": "CCRF-CEM", "conditions": "Homo sapiens, 48 hours", "excerpt": "as §1"}, "COLO 205": {"test_system": "COLO 205", "conditions": "Homo sapiens, 48 hours", "excerpt": "as §1"}, "DU-145": {"test_system": "DU-145", "conditions": "Homo sapiens, 48 hours", "excerpt": "as §1"}, "EKVX": {"test_system": "EKVX", "conditions": "Homo sapiens, 48 hours", "excerpt": "as §1"}, "HCT-116": {"test_system": "HCT-116", "conditions": "Homo sapiens, 48 hours", "excerpt": "as §1"}, "HL-60(TB)": {"test_system": "HL-60(TB)", "conditions": "Homo sapiens, 48 hours", "excerpt": "as §1"}, "HOP-92": {"test_system": "HOP-92", "conditions": "Homo sapiens, 48 hours", "excerpt": "as §1"}, "HS 578T": {"test_system": "HS 578T", "conditions": "Homo sapiens, 48 hours", "excerpt": "as §1"}, "HT29": {"test_system": "HT29", "conditions": "Homo sapiens, HT-29, 48 hours", "excerpt": "as §1"}, "IGROV1": {"test_system": "IGROV1", "conditions": "Homo sapiens, IGROV-1, 48 hours", "excerpt": "as §1"}, "KM12": {"test_system": "KM12", "conditions": "Homo sapiens, 48 hours", "excerpt": "as §1"}, "LOX IMVI": {"test_system": "LOX IMVI", "conditions": "Homo sapiens, 48 hours", "excerpt": "as §1"}, "M14": {"test_system": "M14", "conditions": "Homo sapiens, 48 hours", "excerpt": "as §1"}, "MCF7": {"test_system": "MCF7", "conditions": "Homo sapiens, 48 hours", "excerpt": "as §1"}, "MDA-MB-231/ATCC": {"test_system": "MDA-MB-231/ATCC", "conditions": "Homo sapiens, 48 hours", "excerpt": "as §1"}, "MDA-MB-468": {"test_system": "MDA-MB-468", "conditions": "Homo sapiens, 48 hours", "excerpt": "as §1"}, "NCI-H226": {"test_system": "NCI-H226", "conditions": "Homo sapiens, 48 hours", "excerpt": "as §1"}, "NCI-H23": {"test_system": "NCI-H23", "conditions": "Homo sapiens, 48 hours", "excerpt": "as §1"}, "NCI-H322M": {"test_system": "NCI-H322M", "conditions": "Homo sapiens, 48 hours", "excerpt": "as §1"}, "NCI-H522": {"test_system": "NCI-H522", "conditions": "Homo sapiens, 48 hours", "excerpt": "as §1"}, "NCI/ADR-RES": {"test_system": "NCI/ADR-RES", "conditions": "Homo sapiens, 48 hours", "excerpt": "as §1"}, "OVCAR-3": {"test_system": "OVCAR-3", "conditions": "Homo sapiens, 48 hours", "excerpt": "as §1"}, "OVCAR-4": {"test_system": "OVCAR-4", "conditions": "Homo sapiens, 48 hours", "excerpt": "as §1"}, "OVCAR-8": {"test_system": "OVCAR-8", "conditions": "Homo sapiens, 48 hours", "excerpt": "as §1"}, "PC-3": {"test_system": "PC-3", "conditions": "Homo sapiens, 48 hours", "excerpt": "as §1"}, "RPMI-8226": {"test_system": "RPMI-8226", "conditions": "Homo sapiens, 48 hours", "excerpt": "as §1"}, "RXF 393": {"test_system": "RXF 393", "conditions": "Homo sapiens, 48 hours", "excerpt": "as §1"}, "SF-268": {"test_system": "SF-268", "conditions": "Homo sapiens, 48 hours", "excerpt": "as §1"}, "SF-539": {"test_system": "SF-539", "conditions": "Homo sapiens, 48 hours", "excerpt": "as §1"}, "SK-MEL-28": {"test_system": "SK-MEL-28", "conditions": "Homo sapiens, 48 hours", "excerpt": "as §1"}, "SK-MEL-2": {"test_system": "SK-MEL-2", "conditions": "Homo sapiens, 48 hours", "excerpt": "as §1"}, "SK-MEL-5": {"test_system": "SK-MEL-5", "conditions": "Homo sapiens, 48 hours", "excerpt": "as §1"}, "SK-OV-3": {"test_system": "SK-OV-3", "conditions": "Homo sapiens, 48 hours", "excerpt": "as §1"}, "SN12C": {"test_system": "SN12C", "conditions": "Homo sapiens, 48 hours", "excerpt": "as §1"}, "SNB-19": {"test_system": "SNB-19", "conditions": "Homo sapiens, 48 hours", "excerpt": "as §1"}, "SNB-75": {"test_system": "SNB-75", "conditions": "Homo sapiens, 48 hours", "excerpt": "as §1"}, "SR": {"test_system": "SR", "conditions": "Homo sapiens, 48 hours", "excerpt": "as §1"}, "T-47D": {"test_system": "T-47D", "conditions": "Homo sapiens, T47D, 48 hours", "excerpt": "as §1"}, "TK-10": {"test_system": "TK-10", "conditions": "Homo sapiens, 48 hours", "excerpt": "as §1"}, "U251": {"test_system": "U251", "conditions": "Homo sapiens, U-251, 48 hours", "excerpt": "as §1"}, "UACC-257": {"test_system": "UACC-257", "conditions": "Homo sapiens, 48 hours", "excerpt": "as §1"}, "UO-31": {"test_system": "UO-31", "conditions": "Homo sapiens, 48 hours", "excerpt": "as §1"}}, "data": [{"molecule": "O=C1OCC2=C1C(c1cccc(F)c1)c1cc3c(cc1N2CCO)OCO3", "note": "(stereo not drawn) [SU056, 9-(3-fluorophenyl)-5-(2-hydroxyethyl)-6,9-dihydro-[1,3]dioxolo[4,5-g]furo[3,4-b]quinolin-8(5H)-one]", "values": [{"measurement": "IC50", "setting": "786-0", "value": 1860, "unit": "nM"}, {"measurement": "IC50", "setting": "A498", "value": 1110, "unit": "nM"}, {"measurement": "IC50", "setting": "A549/ATCC", "value": 8740, "unit": "nM"}, {"measurement": "IC50", "setting": "ACHN", "value": 3030, "unit": "nM"}, {"measurement": "IC50", "setting": "BT-549", "value": 1460, "unit": "nM"}, {"measurement": "IC50", "setting": "CAKI-1", "value": 1240, "unit": "nM"}, {"measurement": "IC50", "setting": "CCRF-CEM", "value": 2370, "unit": "nM"}, {"measurement": "IC50", "setting": "COLO 205", "value": 1460, "unit": "nM"}, {"measurement": "IC50", "setting": "DU-145", "value": 2710, "unit": "nM"}, {"measurement": "IC50", "setting": "EKVX", "value": 3030, "unit": "nM"}, {"measurement": "IC50", "setting": "HCT-116", "value": 1530, "unit": "nM"}, {"measurement": "IC50", "setting": "HL-60(TB)", "value": 1260, "unit": "nM"}, {"measurement": "IC50", "setting": "HOP-92", "value": 3100, "unit": "nM"}, {"measurement": "IC50", "setting": "HS 578T", "value": 1420, "unit": "nM"}, {"measurement": "IC50", "setting": "HT29", "value": 1520, "unit": "nM"}, {"measurement": "IC50", "setting": "IGROV1", "value": 4190, "unit": "nM"}, {"measurement": "IC50", "setting": "KM12", "value": 1480, "unit": "nM"}, {"measurement": "IC50", "setting": "LOX IMVI", "value": 2350, "unit": "nM"}, {"measurement": "IC50", "setting": "M14", "value": 357, "unit": "nM"}, {"measurement": "IC50", "setting": "MCF7", "value": 1440, "unit": "nM"}, {"measurement": "IC50", "setting": "MDA-MB-231/ATCC", "value": 3090, "unit": "nM"}, {"measurement": "IC50", "setting": "MDA-MB-468", "value": 1120, "unit": "nM"}, {"measurement": "IC50", "setting": "NCI-H226", "value": 50000, "unit": "nM"}, {"measurement": "IC50", "setting": "NCI-H23", "value": 3960, "unit": "nM"}, {"measurement": "IC50", "setting": "NCI-H322M", "value": 4010, "unit": "nM"}, {"measurement": "IC50", "setting": "NCI-H522", "value": 2590, "unit": "nM"}, {"measurement": "IC50", "setting": "NCI/ADR-RES", "value": 2020, "unit": "nM"}, {"measurement": "IC50", "setting": "OVCAR-3", "value": 1270, "unit": "nM"}, {"measurement": "IC50", "setting": "OVCAR-4", "value": 46800, "unit": "nM"}, {"measurement": "IC50", "setting": "OVCAR-8", "value": 3180, "unit": "nM"}, {"measurement": "IC50", "setting": "PC-3", "value": 1460, "unit": "nM"}, {"measurement": "IC50", "setting": "RPMI-8226", "value": 2280, "unit": "nM"}, {"measurement": "IC50", "setting": "RXF 393", "value": 1510, "unit": "nM"}, {"measurement": "IC50", "setting": "SF-268", "value": 3200, "unit": "nM"}, {"measurement": "IC50", "setting": "SF-539", "value": 1130, "unit": "nM"}, {"measurement": "IC50", "setting": "SK-MEL-28", "value": 20300, "unit": "nM"}, {"measurement": "IC50", "setting": "SK-MEL-2", "value": 2460, "unit": "nM"}, {"measurement": "IC50", "setting": "SK-MEL-5", "value": 1260, "unit": "nM"}, {"measurement": "IC50", "setting": "SK-OV-3", "value": 1730, "unit": "nM"}, {"measurement": "IC50", "setting": "SN12C", "value": 3050, "unit": "nM"}, {"measurement": "IC50", "setting": "SNB-19", "value": 3000, "unit": "nM"}, {"measurement": "IC50", "setting": "SNB-75", "value": 820, "unit": "nM"}, {"measurement": "IC50", "setting": "SR", "value": 294, "unit": "nM"}, {"measurement": "IC50", "setting": "T-47D", "value": 2180, "unit": "nM"}, {"measurement": "IC50", "setting": "TK-10", "value": 15600, "unit": "nM"}, {"measurement": "IC50", "setting": "U251", "value": 2500, "unit": "nM"}, {"measurement": "IC50", "setting": "UACC-257", "value": 50000, "unit": "nM"}, {"measurement": "IC50", "setting": "UO-31", "value": 2880, "unit": "nM"}]}]}
